# In paper PMC10537229, “Antimicrobial Peptides Originating from Expression Libraries of Aurelia aurita and Mnemiopsis leidyi Prevent Biofilm Formation of Opportunistic Pathogens” (Microorganisms, 2023):
# Columns and labels:
# [1] = tested on: P. aeruginosa; experiment: Growth of planktonic-growing pathogens (turbidity at 600 nm); format: cell-based, Pseudomonas aeruginosa; conditions: 18 h
# Protocol: (§1) In addition, the potential growth-inhibiting effects of synthetic peptides were tested on planktonic-growing pathogens. Again, 3 × 10^8 cells/mL diluted in LB medium were aliquoted in 96-well plates (200 µL for each cavity). Synthetic peptides were added to two selected final concentrations of 3.5 µg/mL and 112.5 µg/mL at the beginning of the experiment. MTPs were closed with gas-permeable membranes and gently shaken at 80 rpm and 37 °C (P. aeruginosa, S. aureus, and S. epidermidis) or 30 °C (K. oxytoca) for 18 h. A comparative endpoint determination (growth control, peptide control IDR-1018, and identified peptides) of the turbidity at 600 nm was measured with plate reader Spectra max Plus 384. An unpaired t-test was conducted as a statistical hypothesis test to determine the significance (p-value) of growth differences.
# [2] = tested on: S. epidermidis; experiment: as above; format: cell-based, Staphylococcus epidermidis; conditions: 18 h
# Protocol: as §1
# [3] = tested on: K. oxytoca; experiment: Biofilm prevention in vitro assay (crystal violet, static); format: cell-based, Klebsiella oxytoca; conditions: synthetic peptide at highest concentration 112.5 µg/mL, 18 h, versus biofilm control (100%)
# Protocol: (§2) The opportunistic pathogenic bacteria K. oxytoca (DSM 7342, M5a1-type strain), P. aeruginosa PAO1 (DSM 1707, pathogenic-type strain), S. epidermidis RP62A (DSM 28319, clinical isolate from catheter sepsis), and S. aureus (DSM 11823, clinical isolate) were grown in 5 mL LB medium overnight at below-indicated temperatures. The cell concentrations of the overnight cultures were analyzed with Neubauer cell counting and set to 3 × 10^8 cells/mL using GC minimal medium (with 1% (v/v) glycerol and 0.3% (w/v) casamino acids) for K. oxytoca and Caso bouillon (17 g/L casein peptone, 3 g/L soybean peptone, 5 g/L NaCl, 2.5 g/L K2HPO4, and 2.5 g/L glucose) for the remaining strains in the crystal violet assay. Cultures were aliquoted in 96-well plates (180/195 µL for each cavity). Cell-free size-fractionated cell extracts (20 µL) and synthesized peptides (various concentrations, 5 µL) were added to the cultures. MTPs were closed with gas-permeable membranes (Breathe-Easy®, Diversified Biotech, Dedham, MA, USA) and incubated at 37 °C (P. aeruginosa, S. aureus, and S. epidermidis) or 30 °C (K. oxytoca) for 18 h without shaking. Three biological replicates were performed, each with eight technical replicates. Medium controls were performed for normalization. Biofilm formation was monitored and quantified using the crystal violet assay. Following an 18 h incubation period, the cell cultures were removed, and the wells underwent two washes with H2O. Biofilms that developed and adhered to the surfaces were subjected to staining using 200 μL of a 0.1% crystal violet solution (Carl Roth, Karlsruhe, Germany) for 10 min at room temperature (RT). The stained biofilms were left to air dry after eliminating the crystal violet solution through two H2O washes. A total of 200 μL of 96% ethanol was introduced into each stained well to solubilize the dye, and incubation at RT for 15 min followed. Biofilm formation was assessed by measuring the absorbance of resolved crystal violet at 590 nm with the plate reader Spectra max Plus 384 (Molecular Devices, Ismaning; Germany). The screening procedure is depicted in Figure S1.
# [4] = tested on: S. epidermidis RP62A; experiment: as above; format: cell-based, Staphylococcus epidermidis; conditions: synthetic peptide at highest concentration 112.5 µg/mL, 18 h, versus biofilm control (100%)
# Protocol: as §2
# [5] = tested on: K. oxytoca M5aI; experiment: Dynamic biofilm formation in microfluidic flow cell (Syto9, CLSM); format: cell-based, Klebsiella oxytoca; conditions: peptide 10 ng/channel, GC medium, flow 15 µL/h, 24 h, 30 °C, mean ± SD of four biological x four technical replicates
# From the text: The microfluidic flow cell system comprises a polymethyl methacrylate corpus with a single channel (1 × 8 × 0.1 mm). Two inlets and one outlet exist. A borosilicate glass (24 × 60 × 0.17 mm; Carl Roth, Karlsruhe, Germany) was fixed with the adhesive Black-Seal silicone (Weicon, Münster, Germany). Microliter syringes (Innovative Labor System GmbH, Stützenbach, Germany) were connected via polytetrafluoroethylene (PTFE) tubes (0.3 mm × 0.6 mm) (Bola, Grünsfeld, Germany) with the in- and outlets and clamped into a syringe pump (Model: 220) (KD Scientific, Holliston, MA, USA). The channel was sterilized by rinsing 70% EtOH for 24 h at a flow rate of 20 µL/h. Afterwards, the remaining ethanol was washed out with sterile water at 20 μL/h for 1 h. Subsequently, the channel was equilibrated with GC medium at 20 μL/h for 2 h. Inoculation was conducted with a cell suspension of 1 × 10^9 cells/mL, generated from an overnight culture of K. oxytoca M5aI. Initial cell adhesion was ensured by incubation at 30 °C for 1 h without any flow. Next, the channel was continuously rinsed at 15 μL/h with GC medium injected within the first inlet. The synthetic peptides IDR-1018 (biofilm-preventing control peptide, [47, 48], BiP_Aa_2, BiP_Aa_5, and BiP_Aa_6 were diluted in GC medium to a concentration of 25 µg/mL and injected within the second inlet. Thus, the final peptide concentration was 12.5 µg/mL, corresponding to 10 ng peptide within the 0.8 µL channel. Biofilm formation was conducted at a flow rate of 15 µL/h for 24 h at 30 °C. The biofilm formation of K. oxytoca M5aI was further studied without adding peptides. Four biological replicates were conducted for each treatment.
# Biofilms were stained with the fluorescent dye Syto9 (488 nm) (Life Technologie, Carlsbad, CA, USA) and analyzed using the LSM 700 confocal laser scanning microscope (Zeiss, Oberkochen, Germany). Therefore, the microfluidic flow cells were washed with GC medium at 3 µL/min for 15 min. The channel was then filled with a 1:1000 dilution of the fluorescent dye Syto9 and incubated in the dark at RT for 30 min. Dye residues were removed by rinsing GC medium at 3 μL/min for 15 min. Four image stacks were recorded per flow cell with optical sections of 0.9 µm per z-step. The digital image acquisition, three-dimensional reconstruction, and calculation of the biofilm parameters were performed with the software “Zen Black” (version 14.0.22.201) (Zeiss, Oberkochen, Germany) and the microscopy image analysis software “Imaris” (version 9.9.0) (Oxford Instruments, Abingdon, UK).
# [6] = tested on: K. oxytoca, P. aeruginosa, S. epidermidis, and S. aureus; experiment: Crystal violet biofilm assay, statements on all tested pathogens; format: cell-based; conditions: summary in discussion
# Protocol: as §2, with “Three biological replicates were performed, each with eight technical replicates. Medium controls were performed for normalization.” left out, “Following an 18 h incubation period, the cell cultures were removed, and the wells underwent two washes with H2O. Biofilms that developed and adhered to the surfaces were subjected to staining using 200 μL of a 0.1% crystal violet solution (Carl Roth, Karlsruhe, Germany) for 10 min at room temperature (RT). The stained biofilms were left to air dry after eliminating the crystal violet solution through two H2O washes. A total of 200 μL of 96% ethanol was introduced into each stained well to solubilize the dye, and incubation at RT for 15 min followed.” left out, “The screening procedure is depicted in Figure S1.” left out
# [7] = tested on: P. aeruginosa PAO1; experiment: Biofilm prevention in vitro assay (crystal violet, static); format: cell-based, Pseudomonas aeruginosa; conditions: 18 h
# Protocol: as §2
# [8] = tested on: S. aureus; experiment: Growth of planktonic-growing pathogens (turbidity at 600 nm); format: cell-based, Staphylococcus aureus; conditions: 18 h
# Protocol: as §1
# [9] = tested on: K. oxytoca; experiment: as above; format: cell-based, Klebsiella oxytoca; conditions: 112.5 µg/mL peptide, LB, 18 h, 80 rpm, 30 °C; mean of 2 biological x 8 technical replicates; control 1.21326667
# Protocol: as §1
# [10] = 112.5 µg/mL, versus control without peptide
sequence,measurement,setting,value
"VRNSVLFRRRRLVC [BiP_Aa_5, synthetic peptide from sORF of A. aurita EST clone 127_8F]","turbidity (600 nm), P. aeruginosa","[1]; 112.5 µg/mL peptide, LB, 80 rpm, 37 °C, mean of 2 biological x 8 technical replicates, control 1.2788369",1.249
same,reduction of planktonic growth of P. aeruginosa,[1]; [10],1.5–5%
same,"turbidity (600 nm), S. epidermidis","[2]; 112.5 µg/mL peptide, LB, 80 rpm, 37 °C, mean of 2 biological x 8 technical replicates, control 1.3398",1.301
same,reduction of planktonic growth of S. epidermidis,[2]; [10],3%
same,reduction of K. oxytoca biofilm formation at 112.5 µg/mL,[3],54%
same,reduction of S. epidermidis biofilm formation at 112.5 µg/mL,[4],22%
same,biofilm thickness,[5]; medium control 11 ± 6 µm,7 ± 2 µm
same,biofilm volume,[5]; medium control 112 ± 62 µm^3,51 ± 25 µm^3
same,"reduction of biofilm masses, all tested pathogens",[6],up to 50%
same,effect on P. aeruginosa biofilm formation (in words),[7]; synthetic peptide 0.4-112.5 µg/mL,slight interference
same,reduction of P. aeruginosa biofilm formation at 112.5 µg/mL,"[7]; synthetic peptide at highest dose 112.5 µg/mL, versus biofilm control (100%)",47%
same,"turbidity (600 nm), S. aureus","[8]; 112.5 µg/mL peptide, LB, 80 rpm, 37 °C, mean of 2 biological x 8 technical replicates, control 1.37192917",1.312
same,reduction of planktonic growth of S. aureus,[8]; [10],1.5–5%
same,"turbidity (600 nm), K. oxytoca",[9],1.257
